Consider 17 compounds from patent publication US20240294551A1 (AMGEN INC., priority 2022, published 2024).

SMILES strings stand for the structures. Counter-ions that a name gives are not always drawn.

Assay [1] deals with His-tagged KRAS G12D protein (Homo sapiens (Human), UniProt P01116, G12D). The assay is described as follows: KRAS G12D TR-FRET Assay. It counts as binding. To be noted: read-out: KRAS G12D Binding IC50. The method, then:
Compounds of interest were prepared in a dose-response titration in DMSO, and 80 nL were added via Labcyte Echo to each well of a 384-well plate (Perkin Elmer 6008280). The His-tagged KRAS G12D protein (Amgen) was diluted to 20 nM in Assay Buffer (20 mM HEPES, pH 7.4, 10 mM MgCl2, 50 mM NaCl, 0.1% BSA, 0.01% Tween-20, 10 μM GDP) and 2 μL was added to the appropriate wells of the 384-well plate. The plate was incubated for 30 minutes at room temperature. Biotinylated KRPep-2d substrate (Amgen) was diluted to 20 nM in Assay Buffer and 2 μL was added to all wells and incubated for 1 hour at room temperature. Detection Reagent (0.4 nM LANCE Eu-W1024 Anti-6×His (Perkin Elmer AD0401), 5 nM streptavidin-d2 (Cisbio 610SADLA)) was prepared in Assay Buffer, then 4 μL was added to the plate and incubated for 1 hour at room temperature. Plates were read using PerkinElmer EnVision (ex: 320 nm, em1: 665 nm, em2: 615 nm) and em1/em2 data was used to generate curve fits using a 4-parameter logistic model to calculate IC50 values.
In general terms: Time-resolved FRET reads energy transfer from a long-lived donor to a nearby acceptor.

In assay [2] the target is GDP-bound KRAS protein (aa 1-169), containing both G12D and C118A amino acid substitutions (Homo sapiens (Human), UniProt P01116, C118A/G12D). The assay is described as follows: KRAS G12D Coupled Nucleotide Exchange Assay. Type of assay: biochemical. To be noted: read-out: KRAS G12D Coupled Exchange IC50. As for the experimental part: KRAS G12D Coupled Nucleotide Exchange Assay
Following compound pre-incubation, purified SOS protein (aa 564-1049) and GTP (Roche 10106399001) were added to the assay wells and incubated for an additional 30 min. To determine the extent of inhibition of SOS-mediated nucleotide exchange, purified GST-tagged cRAF (aa 1-149), nickel chelate AlphaLISA acceptor beads (PerkinElmer AL108R), and AlphaScreen glutathione donor beads (PerkinElmer 6765302) were added to the assay wells and incubated for 10 minutes. The assay plates were then read on a PerkinElmer EnVision Multilabel Reader, using AlphaScreen® technology, and data were analyzed using a 4-parameter logistic model to calculate IC50 values.

Chain of GDP-bound KRAS protein (aa 1-169), containing both G12D and C118A amino acid substitutions (P01116 other isoform, or with tags, fused parts or gaps G12D/C118A): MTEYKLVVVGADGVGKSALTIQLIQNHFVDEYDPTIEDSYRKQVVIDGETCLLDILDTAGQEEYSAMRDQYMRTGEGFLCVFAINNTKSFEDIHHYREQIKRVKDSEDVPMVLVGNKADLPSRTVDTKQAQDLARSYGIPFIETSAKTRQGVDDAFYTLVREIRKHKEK
Chain of His-tagged KRAS G12D protein (P01116 other isoform, or with tags, fused parts or gaps G12D): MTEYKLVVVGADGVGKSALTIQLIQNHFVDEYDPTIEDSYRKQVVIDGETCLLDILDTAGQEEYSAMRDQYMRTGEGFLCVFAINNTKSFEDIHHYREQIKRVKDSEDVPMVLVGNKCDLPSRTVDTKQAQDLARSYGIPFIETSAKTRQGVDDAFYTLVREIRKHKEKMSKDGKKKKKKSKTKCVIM

In general, IC50 refers to the concentration at which inhibition is half-maximal. For `Cc1nc2c3cnc(c(F)c3n1)-c1cc(O)cc3ccc(F)c(c13)CCCC(=O)N[C@]1(C)CCCN2C1.O=C(O)C(F)(F)F` [Example 14, (15R)-22,31-Difluoro-27-hydroxy-8,15-dimethyl-3,7,9,11,16-pentaazahexacyclo[19.7.1.1˜2,6˜.1˜11,15˜.0˜5,10˜.0˜25,29˜]hentriaconta-1(28),2(31),3,5,7,9,21,23,25(29),26-decaen-17-one 2,2,2-trifluoroacetate], the IC50 in assay [1] amounted to 344 nM; in assay [2] it was 296 nM.
Take `Cc1cc2[nH]ncc2c2c1CCCCCC(=O)N[C@]1(C)CCCN(C1)c1nc(OC[C@@]34CCCN3C[C@H](F)C4)nc3c(F)c-2ncc13` [Example 21, (18R)-31-Fluoro-25-(((2R,7aS)-2-fluorotetrahydro-1H-pyrrolo[1,2-a]pyrrol-7a(5H)-yl)methoxy)-9,18-dimethyl-5,6,17,22,24,26,30-heptaazahexacyclo[25.3.1.1˜18,22˜0.0˜2,10˜0.0˜3,7˜0.0˜23,28˜]dotriaconta-1(31),2,4,7,9,23,25,27,29-nonaen-16-one]: the IC50 in assay [1] and in assay [2] was 43 nM each time.
For `Cc1c2ncc3c(nc(OCC45CCC(CC4)O5)nc13)N1CCC[C@](C)(C1)NC(=O)CCCc1c(F)ccc3cc(O)cc-2c13` [Example 23, (15R)-22-Fluoro-27-hydroxy-15,31-dimethyl-8-((1r,4r)-7-oxabicyclo[2.2.1]heptan-1-ylmethoxy)-3,7,9,11,16-pentaazahexacyclo[19.7.1.1˜2,6˜.1˜11,15˜.0˜5,10˜.0˜25,29˜]hentriaconta-1(28),2(31),3,5,7,9,21,23,25(29),26-decaen-17-one], the IC50 was found to be 160 nM in assay [1] and 111 nM in assay [2].
`Cc1c2ncc3c(nc(OC[C@]45CC[C@@H](CC4)C(=O)N5)nc13)N1CCC[C@](C)(C1)NC(=O)CCCc1c(F)ccc3cc(O)cc-2c13` [Example 25, (15R)-22-Fluoro-27-hydroxy-15,31-dimethyl-8-(((1s,4s)-3-oxo-2-azabicyclo[2.2.2]octan-1-yl)methoxy)-3,7,9,11,16-pentaazahexacyclo[19.7.1.1˜2,6˜.1˜11,15˜.0˜5,10˜.0˜25,29˜]hentriaconta-1(28),2(31),3,5,7,9,21,23,25(29),26-decaen-17-one]: the IC50 in assay [1] amounted to 10 nM; in assay [2], 7 nM.
The like results for `Cc1c2ncc3c(nc(OCC(C)(C)O)nc13)N1CCC[C@](C)(C1)NC(=O)CCCc1c(F)ccc3cc(O)cc-2c13` [Example 26, (15R)-22-Fluoro-27-hydroxy-8-(2-hydroxy-2-methylpropoxy)-15,31-dimethyl-3,7,9,11,16-pentaazahexacyclo[19.7.1.1˜2,6˜.1˜11,15˜.0˜5,10˜.0˜25,29˜]hentriaconta-1(28),2(31),3,5,7,9,21,23,25(29),26-decaen-17-one] were, in that order, 124 nM and 109 nM.
For `C[C@@]12CCCN(C1)c1nc(OC[C@@]34CCCN3C[C@H](F)C4)nc3c(F)c(ncc13)-c1cc(O)cc3c1[C@H](CCCC(=O)N2)CCC3` [Example 28, (15R,21S)-31-fluoro-8-(((2R,7aS)-2-fluorotetrahydro-1H-pyrrolo[1,2-a]pyrrol-7a(5H)-yl)methoxy)-27-hydroxy-15-methyl-3,7,9,11,16-pentaazahexacyclo[19.7.1.1˜2,6˜.1˜11,15˜.0˜5,10˜.0˜25,29˜]hentriaconta-1(29),2(31),3,5,7,9,25,27-octaen-17-one 2,2,2-trifluoroacetate salt] the same measures were 68 nM and 48 nM.
For the compound `O=C1CCCc2cccc3cccc(c23)-c2ncc3c(nc(OC[C@@]45CCCN4C[C@H](F)C5)nc3c2F)N2CCC[C@H](C2)O1` [Example 29, (15R)-31-Fluoro-8-(((2R,7aS)-2-fluorotetrahydro-1H-pyrrolo[1,2-a]pyrrol-7a(5H)-yl)methoxy)-16-oxa-3,7,9,11-tetraazahexacyclo[19.7.1.1˜2,6˜.1˜11,15˜.0˜5,10˜.0˜25,29˜]hentriaconta-1(28),2(31),3,5,7,9,21,23,25(29),26-decaen-17-one bis(2,2,2-trifluoroacetate)], the IC50 in assay [1] came to 443 nM; in assay [2], 513 nM.
The like results for `Cc1cc2[nH]ncc2c2c1CCCCCC(=O)O[C@@H]1CCCN(C1)c1nc(OC[C@@]34CCCN3C[C@H](F)C4)nc3c(F)c-2ncc13` [Example 34, (18R)-31-fluoro-25-(((2R,7aS)-2-fluorotetrahydro-1H-pyrrolo[1,2-a]pyrrol-7a(5H)-yl)methoxy)-9-methyl-17-oxa-5,6,22,24,26,30-hexaazahexacyclo[25.3.1.1~18,22~.0~2,10~.0~3,7~.0~23,28~]dotriaconta-1(31),2,4,7,9,23,25,27,29-nonaen-16-one] were, in that order, 220 nM and 177 nM.
The like results for `O=C1OC[C@H]2C[C@H]2c2c(Cl)cc3[nH]ncc3c2-c2ncc3c(nc(OC[C@@]45CCCN4C[C@H](F)C5)nc3c2F)N2CCC[C@H](C2)O1` [Example 46, (11R,13S,18R)-9-chloro-31-fluoro-25-(((2R,7aS)-2-fluorotetrahydro-1H-pyrrolo[1,2-a]pyrrol-7a(5H)-yl)methoxy)-15,17-dioxa-5,6,22,24,26,30-hexaazaheptacyclo[25.3.1.1˜18,22˜.0˜2,10˜.0˜3,7˜.0˜11,13˜.0˜23,28˜]dotriaconta-1(31),2,4,7,9,23,25,27,29-nonaen-16-one bis(2,2,2-trifluoroacetate)] were, in that order, 12 nM and 10 nM.
The like results for `O=C1CCCCc2c(Cl)cccc2-c2ncc3c(nc(OC[C@@]45CCCN4C[C@H](F)C5)nc3c2F)N2CCC[C@H](C2)N1` [Example 59, (23R)-15-chloro-28-fluoro-4-(((2R,7aS)-2-fluorotetrahydro-1H-pyrrolo[1,2-a]pyrrol-7a(5H)-yl)methoxy)-1,3,5,9,22-pentaazapentacyclo[21.3.1.1~6,10~.0~2,7~.0~11,16~]octacosa-2,4,6,8,10(28),11,13,15-octaen-21-one] were, in that order, 651 nM and 481 nM.
Regarding `O=C1CCCc2c(F)ccc3cccc(c23)-c2ncc3c(nc(OC[C@@]45CCCN4C[C@H](F)C5)nc3c2F)N2CCOC[C@H](C2)N1` [Example 70, (16S)-23,32-difluoro-8-(((2R,7aS)-2-fluorotetrahydro-1H-pyrrolo[1,2-a]pyrrol-7a(5H)-yl)methoxy)-14-oxa-3,7,9,11,17-pentaazahexacyclo[20.7.1.1~2,6~.1~11,16~.0~5,10~.0~26,30~]dotriaconta-1(29),2(32),3,5,7,9,22,24,26(30),27-decaen-18-one], the values for the half-inhibitory concentration (IC50) in assay [1] and in assay [2] were 277 nM and 274 nM, respectively.
For `O=C1CCCc2c(F)ccc3cccc(c23)-c2ncc3c(nc(OC[C@@]45CCCN4C[C@H](F)C5)nc3c2F)N2CC[C@@H]3CCN1[C@@H]3C2` [Example 71, (27R,31S)-18,33-Difluoro-4-(((2R,7aS)-2-fluorotetrahydro-1H-pyrrolo[1,2-a]pyrrol-7a(5H)-yl)methoxy)-1,3,5,9,24 pentaazaheptacyclo[22.5.2.1˜6,10˜.1˜11,15˜.0˜2,7˜.0˜19,32˜.0˜27,31˜]tritriaconta-2,4,6,8,10(33),11,13,15(32),16,18-decaen-23-one] the same measures were 306 nM and 119 nM.
For `C[C@]12CCCN(C1)c1nc(OC[C@@]34CCCN3C[C@H](F)C4)nc3c(F)c(ncc13)-c1cccc3ccc(F)c(c13)CCOC(=O)N2` [Example 78, (15S)-22,31-difluoro-8-(((2R,7aS)-2-fluorotetrahydro-1H-pyrrolo[1,2-a]pyrrol-7a(5H)-yl)methoxy)-15-methyl-18-oxa-3,7,9,11,16-pentaazahexacyclo[19.7.1.1~2,6~.1~11,15~.0~5,10~.0~25,29~]hentriaconta-1(29),2(31),3,5,7,9,21,23,25,27-decaen-17-one] the same measures were 3810 nM and 2100 nM.
For `O=C1CCCc2c(F)ccc3cccc(c23)-c2ncc3c(nc(OC[C@@]45CCCN4C[C@H](F)C5)nc3c2F)N2CCOC[C@H](C2)O1` [Example 109], the half-maximal inhibitory concentration (IC50) in assay [1] was 180 nM; in assay [2] it was 196 nM.
The like results for `C[C@@]12CCCN(C1)c1nc(OC[C@@]34CCCN3C[C@H](F)C4)nc3c(F)c(ncc13)-c1cccc3cccc(c13)CCCOC(=O)O2` [Example 121] were, in that order, 508 nM and 422 nM.
For `Cc1cc2[nH]ncc2c2c1CCCCCO[C@@H]1CCCN(C1)c1nc(OC[C@@]34CCCN3C[C@H](F)C4)nc3c(F)c-2ncc13` [Example 132] the same measures were 70 nM and 67 nM.
The like results for `Cc1cc2[nH]ncc2c2c1CC/C=C\CO[C@@H]1CCCN(C1)c1nc(OC[C@@]34CCCN3C[C@H](F)C4)nc3c(F)c-2ncc13` [Example 133] were, in that order, 241 nM and 240 nM.
